From ChEMBL document CHEMBL1201862, “PubChem BioAssay data set” (2004)
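Tested at 5 concentrations; 48 h exposure; 96-well plates; endpoints linearly interpolated, else capped at highest concentration. Here, GI50 denotes the concentration required for 50% inhibition of growth.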 Activity calls are given as the source filed them. No stated cut-off is given here; in the data, active = GI50 up to about 1.1 µM and inactive = higher.

Tests used:
Test in all cases: NCI-60 cell line screen, 48 h
[1] = test system: OVCAR-4
[2] = test system: MCF7
[3] = test system: KM12
[4] = test system: NCI/ADR-RES
[5] = test system: SK-MEL-28
[6] = test system: SR
[7] = test system: SF-268
[8] = test system: LOX IMVI
[9] = test system: MDA-MB-231
[10] = test system: K562
[11] = test system: NCI-H226
[12] = test system: MOLT-4
[13] = test system: PC-3
[14] = test system: A498
[15] = test system: SW-620
[16] = test system: SK-MEL-5
[17] = test system: CAKI-1

| Structure (SMILES) | GI50 [1] | GI50 [2] | GI50 [3] | GI50 [4] | GI50 [5] | GI50 [6] | GI50 [7] | GI50 [8] | GI50 [9] | GI50 [10] | GI50 [11] | GI50 [12] | GI50 [13] | GI50 [14] | GI50 [15] | GI50 [16] | GI50 [17] |
| --- | --- | --- | --- | --- | --- | --- | --- | --- | --- | --- | --- | --- | --- | --- | --- | --- | --- |
| COI1NC(=O)c2ccccc21 | > 100 µM (inactive) | > 100 µM (inactive) | > 100 µM (inactive) | > 100 µM (inactive) | > 100 µM (inactive) | > 100 µM (inactive) | > 100 µM (inactive) | > 100 µM (inactive) | > 100 µM (inactive) | > 100 µM (inactive) | > 100 µM (inactive) | > 100 µM (inactive) | > 100 µM (inactive) | > 100 µM (inactive) | > 100 µM (inactive) | > 100 µM (inactive) | – |
| CCCCn1c2c(n(CCCC)c1=S)-c1c(n(CCCC)c(=S)n1CCCC)S[Se][Se]S2 | 0.815 µM (active) | 6.64 µM (inactive) | 18.7 µM (inactive) | 21.1 µM (inactive) | 16.6 µM (inactive) | 5.19 µM (inactive) | 7.13 µM (inactive) | 6.05 µM (inactive) | 2.33 µM (inactive) | 1.63 µM (inactive) | 14.6 µM (inactive) | 2.87 µM (inactive) | 2.26 µM (inactive) | 38.7 µM (inactive) | 0.778 µM (active) | 5.85 µM (inactive) | 1.62 µM (inactive) |
| N#CC(C#N)/N=N/c1ccc(-c2nc3ccccc3[nH]2)cc1 | 22 µM (inactive) | 11.1 µM (inactive) | 59.2 µM (inactive) | 17.6 µM (inactive) | 20.2 µM (inactive) | 18.5 µM (inactive) | 28.2 µM (inactive) | 14.7 µM (inactive) | 13.7 µM (inactive) | 19.6 µM (inactive) | 50.1 µM (inactive) | 10.9 µM (inactive) | 15.8 µM (inactive) | > 100 µM (inactive) | 11.5 µM (inactive) | 35.6 µM (inactive) | 24.5 µM (inactive) |
| CCN1C(Cl)=NS(=O)(=O)c2ccccc21 | 19.4 µM (inactive) | 27.5 µM (inactive) | 51.8 µM (inactive) | 26.5 µM (inactive) | 74.8 µM (inactive) | 34.1 µM (inactive) | 36.6 µM (inactive) | 15.7 µM (inactive) | 23 µM (inactive) | 7.83 µM (inactive) | 21.6 µM (inactive) | 10.2 µM (inactive) | 50 µM (inactive) | 22.4 µM (inactive) | 28.1 µM (inactive) | 13.6 µM (inactive) | 1.93 µM (inactive) |
| O=C1Oc2ccccc2C(=O)/C1=C\Nc1nc(-c2ccc(O)c(O)c2)cs1 | 10.7 µM (inactive) | 3.94 µM (inactive) | 9.08 µM (inactive) | 4.46 µM (inactive) | 9.12 µM (inactive) | 1.19 µM (inactive) | 5.25 µM (inactive) | 3.55 µM (inactive) | 5.7 µM (inactive) | 1.36 µM (inactive) | 6.31 µM (inactive) | 0.447 µM (active) | 3.24 µM (inactive) | 11.9 µM (inactive) | 2.44 µM (inactive) | 4.8 µM (inactive) | 4.63 µM (inactive) |
| O=C(/C=C/c1ccccc1)N1CCCCC1 | > 100 µM (inactive) | > 100 µM (inactive) | > 100 µM (inactive) | > 100 µM (inactive) | > 100 µM (inactive) | > 100 µM (inactive) | > 100 µM (inactive) | > 100 µM (inactive) | > 100 µM (inactive) | > 100 µM (inactive) | > 100 µM (inactive) | > 100 µM (inactive) | > 100 µM (inactive) | > 100 µM (inactive) | > 100 µM (inactive) | > 100 µM (inactive) | > 100 µM (inactive) |
| CCc1nc(N)nc(N)c1-c1ccc([N+](=O)[O-])c(NCc2ccccc2)c1 | 15.2 µM (inactive) | 13.6 µM (inactive) | 17.3 µM (inactive) | 10.7 µM (inactive) | 16.4 µM (inactive) | 10.3 µM (inactive) | 14.9 µM (inactive) | 14.5 µM (inactive) | 14.8 µM (inactive) | 5.2 µM (inactive) | 18.7 µM (inactive) | 7.5 µM (inactive) | 12.8 µM (inactive) | 15.5 µM (inactive) | 12.6 µM (inactive) | 6.05 µM (inactive) | 13.7 µM (inactive) |
| CCOC(=O)c1c(SC(=O)c2ccc(OC)cc2)n(-c2ccccc2)c(=S)n(-c2ccccc2)c1=O | > 100 µM (inactive) | 30.9 µM (inactive) | > 100 µM (inactive) | > 100 µM (inactive) | > 100 µM (inactive) | 29.9 µM (inactive) | 18.6 µM (inactive) | 36.3 µM (inactive) | 24 µM (inactive) | 42.5 µM (inactive) | 84.1 µM (inactive) | 22.5 µM (inactive) | 59.3 µM (inactive) | 27.3 µM (inactive) | 26.7 µM (inactive) | – | > 100 µM (inactive) |
| CO[P@]1(=O)O[C@@H](c2ccccc2)[C@H](O)[C@@]1(O)c1ccccc1 | > 100 µM (inactive) | > 100 µM (inactive) | > 100 µM (inactive) | > 100 µM (inactive) | > 100 µM (inactive) | > 100 µM (inactive) | – | > 100 µM (inactive) | > 100 µM (inactive) | > 100 µM (inactive) | > 100 µM (inactive) | > 100 µM (inactive) | > 100 µM (inactive) | > 100 µM (inactive) | > 100 µM (inactive) | > 100 µM (inactive) | > 100 µM (inactive) |
| O=C(O)C1CC2(C1)CC(C(=O)O)C2 (centres undefined) | > 100 µM (inactive) | > 100 µM (inactive) | > 100 µM (inactive) | > 100 µM (inactive) | > 100 µM (inactive) | > 100 µM (inactive) | – | > 100 µM (inactive) | > 100 µM (inactive) | > 100 µM (inactive) | – | > 100 µM (inactive) | > 100 µM (inactive) | > 100 µM (inactive) | > 100 µM (inactive) | > 100 µM (inactive) | > 100 µM (inactive) |
| COc1ccc2[nH]c3cc4c(=O)c5cc(OC)ccc5[nH]c4cc3c(=O)c2c1 | > 100 µM (inactive) | > 100 µM (inactive) | > 100 µM (inactive) | > 100 µM (inactive) | > 100 µM (inactive) | > 100 µM (inactive) | > 100 µM (inactive) | – | > 100 µM (inactive) | > 100 µM (inactive) | > 100 µM (inactive) | > 100 µM (inactive) | > 100 µM (inactive) | > 100 µM (inactive) | > 100 µM (inactive) | > 100 µM (inactive) | > 100 µM (inactive) |
| OC(CN1CCCCC1)c1ccc(/C=C/c2ccc(Cl)cc2)cc1 (centres undefined) | 83.6 µM (inactive) | > 100 µM (inactive) | 17.2 µM (inactive) | > 100 µM (inactive) | 22.3 µM (inactive) | > 100 µM (inactive) | > 100 µM (inactive) | – | > 100 µM (inactive) | 37.3 µM (inactive) | > 100 µM (inactive) | > 100 µM (inactive) | 90.6 µM (inactive) | 40 µM (inactive) | 46.9 µM (inactive) | 22.3 µM (inactive) | – |
| COc1ccc2c(c1)CCc1c-2n(CCN2CCOCC2)c2ccc(OC)cc12 | > 100 µM (inactive) | 85.5 µM (inactive) | 18.8 µM (inactive) | > 100 µM (inactive) | > 100 µM (inactive) | 10.5 µM (inactive) | > 100 µM (inactive) | – | > 100 µM (inactive) | 14.8 µM (inactive) | 25.5 µM (inactive) | 12.5 µM (inactive) | 63.2 µM (inactive) | > 100 µM (inactive) | 48.8 µM (inactive) | 54.7 µM (inactive) | > 100 µM (inactive) |
| C[C@@H]1C(=O)CC2(O)[C@@]13C[C@@H](OC(=O)[C@@H]3O)[C@@H](C)[C@@]21COC1=O (some centres undefined) | > 100 µM (inactive) | > 100 µM (inactive) | > 100 µM (inactive) | > 100 µM (inactive) | > 100 µM (inactive) | > 100 µM (inactive) | > 100 µM (inactive) | > 100 µM (inactive) | > 100 µM (inactive) | > 100 µM (inactive) | > 100 µM (inactive) | > 100 µM (inactive) | > 100 µM (inactive) | – | > 100 µM (inactive) | > 100 µM (inactive) | – |
| O=C(Nc1ccccc1)c1cc2ccccc2c(/N=N\c2cccc([N+](=O)[O-])c2)c1O | 97.5 µM (inactive) | > 100 µM (inactive) | > 100 µM (inactive) | > 100 µM (inactive) | 94.4 µM (inactive) | 38.2 µM (inactive) | 48.6 µM (inactive) | – | 56.8 µM (inactive) | 89.3 µM (inactive) | > 100 µM (inactive) | > 100 µM (inactive) | > 100 µM (inactive) | > 100 µM (inactive) | > 100 µM (inactive) | > 100 µM (inactive) | > 100 µM (inactive) |
| OCCN(C1=NCCN1)/[N+](=C/c1ccccc1O)[CH-]c1ccccc1O | > 100 µM (inactive) | > 100 µM (inactive) | > 100 µM (inactive) | 83.6 µM (inactive) | – | > 100 µM (inactive) | > 100 µM (inactive) | > 100 µM (inactive) | > 100 µM (inactive) | > 100 µM (inactive) | 28.6 µM (inactive) | > 100 µM (inactive) | > 100 µM (inactive) | > 100 µM (inactive) | > 100 µM (inactive) | > 100 µM (inactive) | > 100 µM (inactive) |
| COC(=O)C1=CC(=O)OC1(OO)c1ccc(Br)cc1 (centres undefined) | > 100 µM (inactive) | > 100 µM (inactive) | > 100 µM (inactive) | > 100 µM (inactive) | > 100 µM (inactive) | 55.8 µM (inactive) | – | 48.5 µM (inactive) | > 100 µM (inactive) | 33.7 µM (inactive) | > 100 µM (inactive) | 31.8 µM (inactive) | > 100 µM (inactive) | – | 62.8 µM (inactive) | > 100 µM (inactive) | > 100 µM (inactive) |
